Measurements taken from patent publication US20230165876A1, “METHYLTHIONINIUM COMPOUNDS FOR USE IN THE TREATMENT OF COVID-19” (WisTa Laboratories Ltd., priority 2020, published 2023).
Where a SMILES comes first, the peptide text is derived from it. The star is where a group is joined. Cbz = O=C(OCc1ccccc1)*; CHN2 = [N-]=[N+]=C*

Legend:
SARS-CoV-2 [1] = conditions: Vero E6 cells; screen concentration 5 µM; cited from earlier work
[2] = LMTM in AD; cited from earlier work
red cells = conditions: administered intravenously; LMTM relative to MTC; cited from earlier work
Complex IV = conditions: tau transgenic mouse model; cited from earlier work
[3] = Oral doses with anti-viral activity and LMTM equivalent calculated from AD activity data; set-up: species or system human; conditions: calculated using the activity data in AD as basis for comparison
[4] = Phase 3 double-blind controlled studies of LMTM in AD and bvFTD, safety; format: in vivo, human
Procedure: Three Phase 3, double-blind, controlled studies of LMTM have been completed (one each in subjects with mild and mild to moderate AD and one in subjects with bvFTD). Results of the AD studies have been published (Gauthier et al., 2016; Wilcock et al., 2018; Shiells et al., 2020). These studies provide an overview of the more common adverse events that might be expected at a dose of LMTM 16 mg/day. In these three studies, 1897 subjects received at least one dose of LMTM. Of these, 860 subjects received LMTM 8 mg/day and 1037 subjects received at least one dose of LMTM in the higher doses of 150 to 250 mg/day. The mean ages of study participants were 71 years (ranging up to 89 years) for subjects with AD and 63 years (ranging up to 79 years) for subjects with bvFTD.
The overall person-years of exposure to LMTM 8 mg/day was 995.2 person-years and to the higher LMTM doses of 150 to 250 mg/day was 988.6 person-years. Six percent (6%) of the subjects discontinued LMTM 8 mg/day due to adverse events; the proportion of subjects discontinuing due to adverse events in the higher dose groups was higher (14%).
The most common Treatment-Emergent Adverse Events (TEAEs) considered at least possibly associated with LMTM given in a dose of 8 mg/day were gastrointestinal (mostly diarrhoea and nausea), genitourinary (mostly pollakiuria and urinary incontinence), haematologic (anaemia, decreased folate, and folate deficiency), and nervous system related (mostly fatigue, dizziness, headache, agitation, and insomnia).
In summary, therefore, the safety of LMTM has been studied in over 2400 patients in Phase 1 and Phase 3 trials at repeat doses up to 450 mg/day. Even at the highest doses examined, the safety profile of LMTM remains benign and consistent with further clinical development.

[5] = LMTM relative to MTC; cited from earlier work
SARS-CoV = conditions: cited from earlier work
SARS-CoV-2 [6] = conditions: cited from earlier work
SARS-CoV-2 [7] = conditions: advanced COVID-19 cases, treated vs not treated; cited from earlier work
SARS-CoV-2 [8] = conditions: 20 COVID-19 patients; cited from earlier work

Cc1cccc(/C=N/Nc2cc(N3CCOCC3)nc(OCCc3ccccn3)n2)c1 [Apilimod]
inhibition of viral replication (SARS-CoV-2 [1]): inhibited viral replication

CN(C)c1ccc2c(c1)Sc1cc(N(C)C)ccc1N2.CS(=O)(=O)O.CS(=O)(=O)O [LMTM, N,N,N′,N′-tetramethyl-10H-phenothiazine-3,7-diaminium bis(hydromethanesulfonate)]
minimum effective dose required for anti-dementia effects [2]: 8 mg/day
optimally effective dose [2]: 16 mg/day
better uptake into red cells (red cells): 20 fold
brain Complex IV activity (Complex IV): enhance brain Complex IV activity
cardiotoxicity (Cardiotoxicity): does not have the cardiotoxicity
equivalent doses of LMTM [3]: 12 - 27 mg/MT per day
change in RBC count, haemoglobin and haematocrit ([4]; LMTM 8 mg/day): minimal change
subjects discontinued due to adverse events ([4]; LMTM 8 mg/day): 6%
vital sign measurements, ECGs, or the C-SSRS ([4]; Phase 3 studies): No clinically meaningful trends
RBC count, haemoglobin and haematocrit ([4]; greater decreases in the higher dose groups (150 to 250 mg/day) compared to 8 mg/day): dose-dependent decreases
subjects discontinuing due to adverse events ([4]; higher LMTM doses of 150 to 250 mg/day): 14%
incidence of anaemia-related TEAEs, gastrointestinal events and genitourinary events ([4]; higher LMTM doses, 150 to 250 mg/day): dose-related increase
safety profile ([4]; over 2400 patients in Phase 1 and Phase 3 trials, repeat doses up to 450 mg/day): benign
better brain:plasma ratio [5]: more than 60 fold

CC(C)(O)c1ccc2c(c1)/C(=C/CCN1CC[C@](O)(c3ccc(Cl)cc3)C(C)(C)C1)c1cccnc1CO2 [MLN-3897]
inhibition of viral replication (SARS-CoV-2 [1]): inhibited viral replication

C[C@@H]1CS/C(=N\NC(=O)C(=O)[C@@H](NC(=O)C2CCCCCC2)C2CCOCC2)N1C [ONO 5334]
inhibition of viral replication (SARS-CoV-2 [1]): inhibited viral replication

CC[C@H](NC(=O)[C@H](CS(=O)(=O)CC1CC1)N[C@@H](c1ccc(F)cc1)C(F)(F)F)C(=O)C(=O)NC1CC1 [VBY-825]
inhibition of viral replication (SARS-CoV-2 [1]): inhibited viral replication

CC(C)CC(NC(=O)OCc1ccccc1)C(=O)NC(C(=O)NCC(=O)C=[N+]=[N-])C(C)C (stereo not drawn) [Z LVG CHN2] (Cbz-Leu-Val-Gly-CHN2; configuration not given here)
inhibition of viral replication (SARS-CoV-2 [1]): inhibited viral replication

CCN(CC)CCCC(C)Nc1ccnc2cc(Cl)ccc12 (centres unmarked) [chloroquine]
effectiveness against SARS-CoV in vitro (SARS-CoV): effectiveness
effectiveness against SARS-CoV-2 in vitro (SARS-CoV-2 [6]): effectiveness
benefit in advanced cases (mortality rates) (SARS-CoV-2 [7]): no benefit

CCN(CCO)CCCC(C)Nc1ccnc2cc(Cl)ccc12 (centres unmarked) [hydroxychloroquine]
viral load in nasal swabs (SARS-CoV-2 [8]): significantly reduced viral load
